Measurements from patent US11173167B2, “Nutritional intervention for improving muscular function and strength” (Metabolic Technologies, Inc., priority 2008, dated 2021).

What was measured:
[1] = 12-week HMB / Vitamin D study, muscular performance index; assay type: in vivo, human; details: eight week performance index, older adults
Source text: (§1) Prior to the start of the experimental period, we randomly assigned nutritional supplements to each subject using computer-generated random numbers in a double-blind fashion. Treatments were arranged in a 2×2 factorial design with two levels of HMB (0 & 3.0 g/d) and two levels of Vitamin D (0 & 2,000 IU/d). We assigned subjects to one of the following four treatments:
Functionality tests included: “Get-up-and-Go” performance (speed and gate), and “Get-up” performance. The “Get-up-and-Go” test consisted of timed measurements of the subject's starting from a seated position, standing, walking forward 3 meters, turning around, walking back to the chair, and sitting down. […] The complete descriptions and standardization of the tests are outlined in the Physical Dimensions of Aging by Waneen W. Spirduso (Human Kinetics, 1995).
A muscular performance index was calculated by summing the percentage change from baseline for Get-up-and-Go, Get-up, handgrip, peak torque for knee extension and flexion (60, 90 and 120°/sec) and peak torque for elbow extension and flexion (60°/sec).
(§2) Least Squares Mean±SEM were calculated strength and functionality changes in each variable over the 12-week period. […] Statistical significance was determined for p<0.05 and a trend was determined for 0.05<p<0.10.

[2] = 12-week HMB / Vitamin D study, knee extension strength (BIODEX peak torque); assay type: in vivo, human; details: older adults, 8 weeks
Source text: as §1
The exercise testing and training session was supervised by trained research associates. Resting heart rate and blood pressure measurements were obtained prior to strength measurements. Enrolled individuals participated in an exercise training program consisting of strength training exercises with Theraband® stretch cords (resistance training) and jumping. The equipment consisted of items that can easily be used at home. Exercise sessions were 3 times a week for 12 weeks. Each exercise session was about 45-60 minutes. […]
Body composition measurements were obtained at 0, 4, 8, and 12 weeks. […] Handgrip strength was measured using a handgrip dynamometer. Peak torque for knee extension and flexion was measured at 60, 90 and 120°/sec. Peak torque for elbow extension and flexion was measured at 60 and 120°/sec.
as §2

[3] = tested on: Mouse C2C12 skeletal muscle cell myoblasts fused into myotubes; test: Protein degradation and synthesis by leucine isotope release/disappearance in C2C12 myotubes with dexamethasone; assay type: cell-based; details: 24 h, dexamethasone 100 nM
Description: Mouse C2C12 skeletal muscle cell myoblasts were grown in culture under standard conditions and fused into myotubes following the methods of Menconi et al. (95). Four separate studies were conducted during different weeks. The first 3 studies consisted of 4 replicate dishes per treatment and the fourth study consisted of 6 replicate dishes per treatment. The treatments were applied to the cells during the 24 h measurement period. Treatments applied were control, 25OH-VitD3 (200 ng/mL), HMB (200 μM HMB as Ca(HMB)2, and the combination of HMB and 25OH-VitD3. Dexamethasone (100 nM) was added to the culture medium during the treatment/measurement period to stimulate protein degradation. Calcium in the form of calcium chloride was added to the control and 25OH-VitD3 treatments so that all the treatments were balanced for calcium. For measurement of protein degradation during the treatment period, leucine free medium was obtained to which [5,5,5]^2H3-leucine was added so that the isotopes of leucine (natural leucine and [1-^13C]-leucine) could be measured as they were released into the medium through the protein degradation process. The measurement medium was sampled at 2 and 24 h and samples stored at −80° C. until analyzed. The samples were analyzed for leucine using a gas chromatography (model 6890, Hewlett Packard, Palo, Calif.) mass spectrometry (model 5973, Hewlett Packard, Palo, Calif.) and the gas chromatography column used for the analysis was a Zebron ZB-5. (Phenomenex, Torrence, Calif.). Natural leucine, [1-^13C]-leucine, and [5,5,5^2H3]-leucine were monitored at 302, 303, and 305 AMU, respectively. Corrections for sampling at 2 h and for leucine utilization from the measurement media were made. […] Concentrations of proteins were analyzed following the microplate assay instructions using a Pierce BCA protein assay kit (Thermo Scientific, Rockford, Ill.). DNA was measured flourometrically using the Quant-iT™ dsDNA assay kit from Invitrogen (Carlsbad, Calif.). […]

[4] = 12-week HMB / Vitamin D study, urinary HMB concentration (supplement compliance); assay type: in vivo, human; details: clean catch urine sample, HMB 3.0 g/day
Description: The average 25OH-VitD3 concentration at wk 0 was 26.5 ng/ml. […] However, subjects either supplemented with a control or HMB alone decreased their serum 25OH-VitD3 level by 2.0 ng/mL. A clean catch urine sample was used to test for supplement compliance.

[5] = after HMB is fed; cited from earlier work
[6] = 12-week 2x2 HMB / Vitamin D study in older adults with exercise training, serum 25OH-VitD3; assay type: in vivo, human; details: control or HMB alone, no Vitamin D supplement
Source text: Elderly women (n=30) and men (n=16) were recruited into a double-blinded controlled study. The older adults were recruited from two locations in South Dakota: Brookings and Sioux Falls. The subjects underwent an initial screening and were randomized to treatments. Testing consisted of an initial (0 weeks) and follow-up testing at 4, 8 and 12 weeks over the course of the 12-week study.
as §1
The treatments were supplied in capsules of equal size and color and contained equal amounts of calcium and phosphorus. The subjects were instructed to take three capsules two times a day. Each subject was supplied with a one-week supply of the supplement, allocated by subject number and returned each week for an additional 1-week supply. […]
as §2

[7] = target: T1, 1-alpha, 25-Vitamin D hydroxylase (Homo sapiens, UniProt O15528); details: human vascular smooth muscle; cited from earlier work
T1 sequence (O15528 1-508): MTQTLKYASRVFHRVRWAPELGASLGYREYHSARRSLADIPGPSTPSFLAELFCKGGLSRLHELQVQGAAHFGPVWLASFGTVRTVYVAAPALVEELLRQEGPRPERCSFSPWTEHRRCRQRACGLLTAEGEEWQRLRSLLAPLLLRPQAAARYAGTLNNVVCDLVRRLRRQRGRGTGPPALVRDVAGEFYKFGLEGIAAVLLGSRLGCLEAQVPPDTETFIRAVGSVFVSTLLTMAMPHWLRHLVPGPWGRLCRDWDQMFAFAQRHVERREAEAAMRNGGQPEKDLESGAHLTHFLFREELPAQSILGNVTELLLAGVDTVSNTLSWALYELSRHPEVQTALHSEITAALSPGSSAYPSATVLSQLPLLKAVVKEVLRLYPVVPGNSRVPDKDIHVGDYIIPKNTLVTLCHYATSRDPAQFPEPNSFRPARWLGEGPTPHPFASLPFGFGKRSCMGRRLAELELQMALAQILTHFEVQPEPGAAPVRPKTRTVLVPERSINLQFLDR

Molecule	increase in the performance index over the control [1] [%]	knee extension strength compared to control-treated subjects [2]	dexamethasone stimulated protein degradation [3]	increase in urinary HMB concentration [4] [fold]	loss of HMB to urine [5]	decrease in serum 25OH-VitD3 level [6] [ng/mL]	decrease in protein degradation measured by [1-13C]-leucine ([3]; HMB 200 μM) [%]	decrease in protein degradation measured by natural leucine ([3]; HMB 200 μM) [%]	Km [7] [ng/mL]
C=C1CC[C@H](O)C/C1=C/C=C1\CCC[C@]2(C)[C@@H]([C@H](C)CCCC(C)C)CC[C@@H]12 [Vitamin D, cholecalciferol]	58	Neither the HMB alone nor the Vitamin D-treated subjects increased knee extension strength	tended to decrease dexamethasone stimulated protein degradation in only the faster turnover protein pool	–	–	–	–	–	–
β-hydroxy-β-methylbutyrate [HMB]	35	Neither the HMB alone nor the Vitamin D-treated subjects increased knee extension strength	–	50	20-50%	2.0	6.3	7.6	–
C=C1CC[C@H](O)C/C1=C/C=C1\CCC[C@]2(C)[C@@H]([C@H](C)CCCC(C)(C)O)CC[C@@H]12 [25OH-VitD3]	–	–	–	–	–	–	–	–	25
